Experimental data reported in ChEMBL document CHEMBL3734741, “Pyrazole clubbed triazolo[1,5-a]pyrimidine hybrids as an anti-tubercular agents: Synthesis, in vitro screening and molecular docking study” (Bioorg Med Chem, 2015).
≈ marks a conversion by molar mass, not a printed value.

Key:
[1] = tested on: Mycobacterium tuberculosis; assay: Antituberculosis activity against Mycobacterium tuberculosis H37Rv MTCC 300 at 6.25 ug/ml after 4 weeks by Lowenstein-Jensen medium method; format: functional; settings: H37Rv MTCC 300, 672 h
[2] = Inhibition of Mycobacterium tuberculosis InhA assessed as conversion of crotonoyl-CoA to butyryl-CoA by spectrophotometric method
[3] = tested on: Mycobacterium tuberculosis; assay: Antituberculosis activity against Mycobacterium tuberculosis H37Rv MTCC 300 after 4 weeks by Lowenstein-Jensen medium method; format: functional; settings: H37Rv MTCC 300, 672 h
[4] = Cytotoxicity against African green monkey Vero cells after 72 hrs by MTT assay; format: cell-based; settings: chlorocebus sabaeus
[5] = Selectivity index, ratio of CC50 for African green monkey Vero cells to IC50 Mycobacterium tuberculosis InhA; format: functional

SMILES	inhibition at 6.25 µg/mL [1] [%]	further results
CC(C)C1=C(C(=O)Nc2ccccn2)C(c2cn(-c3ccccc3)nc2-c2ccc(Cl)cc2)n2ncnc2N1 (stereo not given)	81	–
Cc1ccc(NC(=O)C2=C(C(C)C)Nc3ncnn3C2c2cn(-c3ccccc3)nc2-c2ccc(Cl)cc2)nc1 (stereo not given)	76	–
Cc1ccc(-c2nn(-c3ccccc3)cc2C2C(C(=O)Nc3ccc(Br)cn3)=C(C(C)C)Nc3ncnn32)cc1 (stereo not given)	66	–
CC(C)C1=C(C(=O)Nc2ccc(Br)cn2)C(c2cn(-c3ccccc3)nc2-c2ccc(F)cc2)n2ncnc2N1 (stereo not given)	88	–
CC1=C(C(=O)Nc2ccccn2)C(c2cn(-c3ccccc3)nc2-c2ccc([N+](=O)[O-])cc2)n2ncnc2N1 (stereo not given)	84	–
CC1=C(C(=O)Nc2ccccn2)C(c2cn(-c3ccccc3)nc2-c2ccc(Cl)cc2)n2ncnc2N1 (stereo not given)	84	–
CC(C)C1=C(C(=O)Nc2ccc(Br)cn2)C(c2cn(-c3ccccc3)nc2-c2ccc([N+](=O)[O-])cc2)n2ncnc2N1 (stereo not given)	78	–
CC(C)C1=C(C(=O)Nc2ccccn2)C(c2cn(-c3ccccc3)nc2-c2ccc(F)cc2)n2ncnc2N1 (stereo not given)	84	–
CC1=C(C(=O)Nc2ccccn2)C(c2cn(-c3ccccc3)nc2-c2ccc(C)cc2)n2ncnc2N1 (stereo not given)	56	–
CC(C)C1=C(C(=O)Nc2ccc(Br)cn2)C(c2cn(-c3ccccc3)nc2-c2ccccc2)n2ncnc2N1 (stereo not given)	54	–
Cc1ccc(NC(=O)C2=C(C(C)C)Nc3ncnn3C2c2cn(-c3ccccc3)nc2-c2ccc(F)cc2)nc1 (stereo not given)	82	–
Cc1ccc(NC(=O)C2=C(C(C)C)Nc3ncnn3C2c2cn(-c3ccccc3)nc2-c2ccccc2)nc1 (stereo not given)	42	–
CC1=C(C(=O)Nc2ccccn2)C(c2cn(-c3ccccc3)nc2-c2ccccc2)n2ncnc2N1 (stereo not given)	72	–
Cc1ccc(NC(=O)C2=C(C(C)C)Nc3ncnn3C2c2cn(-c3ccccc3)nc2-c2ccc([N+](=O)[O-])cc2)nc1 (stereo not given)	68	–
CC1=C(C(=O)Nc2ccc(Br)cn2)C(c2cn(-c3ccccc3)nc2-c2ccccc2)n2ncnc2N1 (stereo not given)	95	IC50 [2]: 0.85 µg/mL (≈ 1.54 µM); MIC [3]: 3.13 µg/mL (≈ 5.66 µM); CC50 at 72 h [4]: 25 µg/mL (≈ 45.2 µM); Ratio CC50/IC50 [5]: 29.41
Cc1ccc(-c2nn(-c3ccccc3)cc2C2C(C(=O)Nc3ccccn3)=C(C(C)C)Nc3ncnn32)cc1 (stereo not given)	55	–
Cc1ccc(-c2nn(-c3ccccc3)cc2C2C(C(=O)Nc3ccc(C)cn3)=C(C(C)C)Nc3ncnn32)cc1 (stereo not given)	46	–

SMILES	inhibition at 6.25 µg/mL [1] [%]	further results
CC1=C(C(=O)Nc2ccc(Br)cn2)C(c2cn(-c3ccccc3)nc2-c2ccc(Cl)cc2)n2ncnc2N1 (stereo not given)	98	IC50 [2]: 0.11 µg/mL (≈ 0.187 µM); MIC [3]: 0.78 µg/mL (≈ 1.33 µM); CC50 at 72 h [4]: 20 µg/mL (≈ 34 µM); Ratio CC50/IC50 [5]: 181.81
CC1=C(C(=O)Nc2ccc(Br)cn2)C(c2cn(-c3ccccc3)nc2-c2ccc(F)cc2)n2ncnc2N1 (stereo not given)	99	IC50 [2]: 0.11 µg/mL (≈ 0.193 µM); MIC [3]: 0.39 µg/mL (≈ 0.683 µM); CC50 at 72 h [4]: 20 µg/mL (≈ 35 µM); Ratio CC50/IC50 [5]: 181.81
CC1=C(C(=O)Nc2ccccn2)C(c2cn(-c3ccccc3)nc2-c2ccc(F)cc2)n2ncnc2N1 (stereo not given)	99	IC50 [2]: 0.16 µg/mL (≈ 0.325 µM); MIC [3]: 0.78 µg/mL (≈ 1.58 µM); CC50 at 72 h [4]: 20 µg/mL (≈ 40.6 µM); Ratio CC50/IC50 [5]: 125
CC1=C(C(=O)Nc2ccc(C)cn2)C(c2cn(-c3ccccc3)nc2-c2ccc(Cl)cc2)n2ncnc2N1 (stereo not given)	79	–
CC1=C(C(=O)Nc2ccc(C)cn2)C(c2cn(-c3ccccc3)nc2-c2ccc(F)cc2)n2ncnc2N1 (stereo not given)	86	–
CC1=C(C(=O)Nc2ccc(Br)cn2)C(c2cn(-c3ccccc3)nc2-c2ccc([N+](=O)[O-])cc2)n2ncnc2N1 (stereo not given)	96	IC50 [2]: 0.28 µg/mL (≈ 0.468 µM); MIC [3]: 1.56 µg/mL (≈ 2.61 µM); CC50 at 72 h [4]: 25 µg/mL (≈ 41.8 µM); Ratio CC50/IC50 [5]: 89.28
CC1=C(C(=O)Nc2ccc(Br)cn2)C(c2cn(-c3ccccc3)nc2-c2ccc(C)cc2)n2ncnc2N1 (stereo not given)	64	–
CC(C)C1=C(C(=O)Nc2ccc(Br)cn2)C(c2cn(-c3ccccc3)nc2-c2ccc(Cl)cc2)n2ncnc2N1 (stereo not given)	84	–
CC(C)C1=C(C(=O)Nc2ccccn2)C(c2cn(-c3ccccc3)nc2-c2ccc([N+](=O)[O-])cc2)n2ncnc2N1 (stereo not given)	74	–
CC1=C(C(=O)Nc2ccc(C)cn2)C(c2cn(-c3ccccc3)nc2-c2ccc([N+](=O)[O-])cc2)n2ncnc2N1 (stereo not given)	68	–
CC1=C(C(=O)Nc2ccc(C)cn2)C(c2cn(-c3ccccc3)nc2-c2ccc(C)cc2)n2ncnc2N1 (stereo not given)	49	–
CC(C)C1=C(C(=O)Nc2ccccn2)C(c2cn(-c3ccccc3)nc2-c2ccccc2)n2ncnc2N1 (stereo not given)	45	–
CC1=C(C(=O)Nc2ccc(C)cn2)C(c2cn(-c3ccccc3)nc2-c2ccccc2)n2ncnc2N1 (stereo not given)	66	–
CC[C@@H](CO)NCCN[C@@H](CC)CO [ETHAMBUTOL]	99	MIC [3]: 3.12 µg/mL (≈ 15.3 µM)
NNC(=O)c1ccncc1 [ISONIAZID]	–	MIC [3]: 0.3 µg/mL (≈ 2.19 µM)
CO[C@H]1/C=C/O[C@@]2(C)Oc3c(C)c(O)c4c(O)c(c(/C=N/N5CCN(C)CC5)c(O)c4c3C2=O)NC(=O)/C(C)=C\C=C\[C@H](C)[C@H](O)[C@@H](C)[C@@H](O)[C@@H](C)[C@H](OC(C)=O)[C@@H]1C [RIFAMPIN]	99	MIC [3]: 0.5 µg/mL (≈ 0.608 µM)
